We go through one molecule from article PMC12518639, “Apomorphine is a novel necroptosis inhibitor targeting mixed lineage kinase domain-like protein oligomerization” (Cell Death Discovery, 2025).

In test [1] the test system is THP-1 cells. In words: PI uptake assay after TBZ treatment. As to conditions: Homo sapiens; THP-1, TBZ, 8 h. The test is classed as cell-based. The method, then:
To identify potential inhibitors of the necroptosis pathway targeting MLKL or the process of p-MLKL pore formation on the membrane, we screened a library of 2150 compounds, including FDA-approved drugs and those in phase 1–3 clinical trials, using THP-1-HMGB1-Lucia™ cells expressing the HMGB1-luciferase fusion protein. The cells were treated with a necroptosis-inducing mixture containing TNF-α, BV6, and Z-VAD-FMK (TBZ) in addition to the compound library (Fig. 1A). The supernatants were harvested to measure luciferase activities for necroptosis. The luciferase activities of cell supernatants treated with TBZ alone were considered as the maximum release (100%) of HMGB1-luciferase. NEC-1, a known RIP1 inhibitor used in both humans and mice, was used as a positive control. An initial screening was performed to identify compounds that reduced luciferase activity to within 20% of the TBZ-treated supernatant, and 72 compounds (S1–S72) were selected (Table S1). Among these compounds were four known necroptosis inhibitors of pazopanib (S10), bardoxolone (S16), ponatinib (S17), and dabrafenib (S31), indicating the reliability of this screening assay. […]
PI uptake assays were performed in triplicate to evaluate pore formation on the plasma membrane. […] Fluorescence was recorded using a Varioskan Flash 3001 plate reader (Thermo Fisher Scientific, Waltham, MA, USA).

In test [2] the test system is p-MLKL. The test can be described thus: Western blot of phosphorylated MLKL in whole cell lysates. It counts as cell-based, human. As to conditions: 8 h. The method, then: To identify potential inhibitors of the necroptosis pathway targeting MLKL or the process of p-MLKL pore formation on the membrane, we screened a library of 2150 compounds, including FDA-approved drugs and those in phase 1–3 clinical trials, using THP-1-HMGB1-Lucia™ cells expressing the HMGB1-luciferase fusion protein. The cells were treated with a necroptosis-inducing mixture containing TNF-α, BV6, and Z-VAD-FMK (TBZ) in addition to the compound library (Fig. 1A). The supernatants were harvested to measure luciferase activities for necroptosis. The luciferase activities of cell supernatants treated with TBZ alone were considered as the maximum release (100%) of HMGB1-luciferase. NEC-1, a known RIP1 inhibitor used in both humans and mice, was used as a positive control. […] Next, we performed a propidium iodide (PI) uptake assay to exclude cytotoxic compounds using THP-1 cells. Then, we selected candidate molecules that were arbitrarily less than 30% of those treated with TBZ. […] Next, the inhibition levels of p-MLKL were tested to select MLKL-targeting molecules (Figs. 1C and S1A). Compounds that reduced p-MLKL levels to less than 30% of TBZ-treated controls were considered as potential inhibitors of MLKL phosphorylation. Conversely, compounds that maintained p-MLKL levels above 70% were selected because they are presumed to prevent the formation of pores in the plasma membrane by interfering with oligomerization.
The cells were harvested and lysed in 1× RIPA buffer (R4100-010, GenDEPOT, Katy, TX, USA) containing protease (P3100-001, GenDEPOT) and phosphatase (1862495, Thermo Fisher Scientific) inhibitors. WCLs were then centrifuged at 20,000×g for 30 min at 4 °C and subjected to non-reducing or reducing 8–12% SDS-PAGE gel electrophoresis. The membrane was blocked with 5% non-fat milk in TBS and probed with antibodies. Antibodies to hMLKL (14993S), mMLKL (97705S), phospho-hMLKL (Ser358) (91689S), phospho-mMLKL (Ser345) (37333S), phospho-hRIP1 (Ser166) (65746S), mRIP1 (3493S), phospho-mRIP1 (Ser321) (38662S), phospho-hRIP3 (Ser227) (93654), mRIP3 (95702S), p-mRIP3 (Thr231/Ser232) (91702S), and LDH (2012S) (Cell Signaling Technology, Danvers, MA, USA), and GAPDH (LF-PA0018, Abfrontier, S. Korea), hRIP1 (ab72139, Abcam, Cambridge, UK), hRIP3 (sc-135170, Santa Cruz Biotechnology, Dallas, TX, USA), HMGB1 (ab78923, Abcam), and LAMP1 (ab24170, Abcam) antibodies were used.
Fig. S1 Assessment of p-MLKL inhibition to identify MLKL-targeting molecules. (A) Quantification graph corresponding to Fig. 1C. […] Whole-cell lysates (WCLs) were collected and subjected to Western blot analysis under reducing conditions using antibodies against p-MLKL, MLKL, and GAPDH. The p-MLKL/MLKL ratio was quantified and compared to that of TBZ-treated cells. Data represent the mean of three independent experiments. (B) Quantification graph corresponding to Fig. 1D. […] Cytosolic and membrane fractions were collected and analyzed by Western blot under reducing conditions. The levels of p-MLKL and p-RIP1 were normalized to LDH (cytosolic marker) and LAMP1 (membrane marker), respectively. Quantified ratios were compared to those of TBZ-treated cells (n = 3 independent experiments).

`CN1CCc2cccc3c2[C@@H]1Cc1ccc(O)c(O)c1-3` [S62, (6aS)-6-methyl-5,6,6a,7-tetrahydro-4H-dibenzo[de,g]quinoline-10,11-diol]: the 50% inhibitory concentration (IC50) in test [1] was 5.7 µM. Also, the activity at 20 µM in test [2] (Homo sapiens, THP-1, TBZ and 20 μM compound, whole cell lysates, read-out: p-MLKL/MLKL ratio relative to TBZ-treated cells (% Value)) was found to be 100%. The “effect on p-MLKL, p-RIP3 and p-RIP1 in whole cell lysates” value in test [2] (THP-1, TBZ, 20 μM) is given as “little to no effect”.
